# Measurements as given in patent US20250011296A1, “MODULATORS OF MOLECULAR TARGETS EXPRESSED IN METABOLIC AND INFLAMMATORY DISORDERS” (Ohio State Innovation Foundation, priority 2021, published 2025).
# “Also recorded” adds a separate entry of the source. Read-outs that look alike come from different tables or passages of the source.
# Legend:
# [1] = molecular target: T1, PPAR-γ (Homo sapiens, UniProt P37231); assay: PPAR-γ ELISA assay (PPAR-α,γ,δ Complete Transcription Factor Assay Kit; CCD-112CoN or Hela cells, nuclear extracts); type: cell-based
# T1 construct: endogenous in cells; host or cells: CCD-112CoN normal colon cells or HeLa cells (ATCC), nuclear extract
# T1 sequence (P37231 1-505): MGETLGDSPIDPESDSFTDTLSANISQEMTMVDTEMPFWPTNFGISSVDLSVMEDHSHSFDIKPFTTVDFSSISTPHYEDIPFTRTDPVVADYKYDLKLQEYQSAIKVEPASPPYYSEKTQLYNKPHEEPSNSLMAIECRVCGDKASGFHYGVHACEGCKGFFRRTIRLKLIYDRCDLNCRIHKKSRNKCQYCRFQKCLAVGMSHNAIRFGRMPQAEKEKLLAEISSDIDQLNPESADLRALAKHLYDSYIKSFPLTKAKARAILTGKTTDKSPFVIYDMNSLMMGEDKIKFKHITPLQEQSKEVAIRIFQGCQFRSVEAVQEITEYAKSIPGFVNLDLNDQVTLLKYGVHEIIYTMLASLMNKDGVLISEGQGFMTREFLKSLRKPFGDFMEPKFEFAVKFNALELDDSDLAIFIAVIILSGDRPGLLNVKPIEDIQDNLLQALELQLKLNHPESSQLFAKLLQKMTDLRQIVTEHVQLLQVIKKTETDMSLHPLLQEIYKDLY
# Method: To evaluate the ability of natural product extracts and compounds to induce specific binding of PPAR-γ transcription factor in nuclear extracts to immunosorbed peroxisome proliferator response element, the PPAR-α,γ,δ Complete Transcription Factor Assay Kit (Cayman Chemical Company) was used according to the kit protocol. 303 CCD-112CoN normal colon cells or Hela cells (ATCC) were treated with mace extracts or isolated compounds for 24 h, nuclear extracts were harvested using the NE-PER kit (Pierce Biotechnology), and protein content equilibrated using the Pierce BCA Protein Assay kit (Pierce Biotechnology). Specific binding was detected through quantification of absorptivity at 630 nm in a BioTek uQuant microplate reader (BioTek Instruments, Inc.). […] Licarin A derivatives 45-48 were screened through the panel of in vitro assays to evaluate their potential as antidiabetic compound leads. […] Methods for the assay were as described above.
# [2] = test system: PPAR-γ expression; assay: Larval diabetic zebrafish assay, Western blot of PPAR-γ; type: in vivo; conditions: diabetic zebrafish larvae, 10 μM
# Method: Western blot analysis of zebrafish expression levels for glycated hemoglobin, metabolic enzymes, and molecular targets NFκB and PPAR-γ was performed to evaluate potential lead improvement and to discover possible mechanisms of action.
# Wild-type zebrafish were sorted into 24-well microplates with 10 fish per well for a four-phase treatment cycle. At 72 hpf, type 2 diabetes was induced by administering 0.5 mg/mL alloxan in fish water for percutaneous absorption. […] At 78 hpf, the incubation solution was changed to 10 mg/ml D-glucose for 30 minutes, followed by a phase-four rinse in fresh system w Following the four-phase treatment cycle, zebrafish treatment groups were snap frozen in microcentrifuge tubes on dry ice, stored overnight at −80° C., thawed, and homogenized with 2 μL PBS per animal. Following centrifugation (60 minutes at 4° C. and 17,000 rpm), protein content of the homogenate supernatant was determined using the Pierce BCA Protein Assay kit (Pierce Biotechnology). Homogenates were analyzed by Western blot with equal amounts of total protein (20 μg) in each sample and using 4×LDS loading buffer (NuPAGE Life Technologies).
# (§1) Electrophoresis was performed with NuPAGE MES SDS Running Buffer and using the XCell SureLock Mini-Cell Electrophoresis System (Life Technologies). Proteins separated on the gel were transferred to a PVDF membrane using TBST buffer. The blots were blocked in 3% BSA in TBST and subsequently probed overnight with primary antibodies (1:1000 in 1% BSA in TBST) against each target of interest. Following TBST rinses, secondary HRP-conjugated antibodies (1:2000) were applied to the membrane for 60 minutes. The HRP conjugated antibodies were detected using SuperSignal West Femto chemiluminescent substrate (Pierce Biotechnology) and immunoblot images were captured using the luminometer and Lumi Analyst 3.0 software.
# (§2) Band densities were determined using ImageJ Gel Analysis to determine expression levels of each protein of interest. Expression levels of HbA1C, PPAR-γ, and NFκB were organized into a bar graphs (FIG. 5) with band densities calculated in comparison to the housekeeping gene β-actin, normalized to the untreated diabetic group (B) of zebrafish. […].
# [3] = molecular target: T2, NFκB (Homo sapiens, UniProt Q04206); assay: NFκB assay (EZ-Detect Transcription Factor Assay kit; TNF-α-treated HeLa cells, nuclear extracts); type: cell-based
# T2 construct: endogenous in cells; host or cells: HeLa cells (ATCC), nuclear extract
# T2 sequence (Q04206 whole entry): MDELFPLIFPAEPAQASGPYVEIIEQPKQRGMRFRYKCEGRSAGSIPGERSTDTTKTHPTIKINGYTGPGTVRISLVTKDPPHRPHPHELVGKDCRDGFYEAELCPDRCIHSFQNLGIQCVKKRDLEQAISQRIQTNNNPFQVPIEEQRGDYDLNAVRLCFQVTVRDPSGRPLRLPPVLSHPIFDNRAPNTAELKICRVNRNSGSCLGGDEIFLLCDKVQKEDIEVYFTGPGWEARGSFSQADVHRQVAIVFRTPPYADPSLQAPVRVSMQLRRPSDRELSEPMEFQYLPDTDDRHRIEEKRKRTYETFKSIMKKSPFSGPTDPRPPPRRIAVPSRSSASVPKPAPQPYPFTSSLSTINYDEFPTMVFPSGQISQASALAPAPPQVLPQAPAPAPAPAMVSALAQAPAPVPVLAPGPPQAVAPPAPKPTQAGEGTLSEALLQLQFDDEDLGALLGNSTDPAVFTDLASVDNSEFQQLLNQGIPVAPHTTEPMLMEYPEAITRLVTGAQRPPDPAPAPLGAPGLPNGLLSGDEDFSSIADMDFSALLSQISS
# Method: To assess the ability of natural product extracts and compounds to inhibit the specific binding of activated NFκB transcription factor to the biotinylated consensus sequence, the EZ-Detect™ Transcription Factor Assay kit (Pierce Biotechnology) was used according to the kit manual and established protocol. HeLa cells (ATCC) were treated with each test sample and TNF-α, nuclear extracts harvested using the NE-PER kit (Pierce Biotechnology), and protein content equilibrated using the Pierce BCA Protein Assay kit (Pierce Biotechnology). Specific binding was detected through quantification of chemiluminescent signal in a plate reader (FLUOstar Optima, BMG Labtechnologies GmbH, Inc.).
# [4] = test system: HbA1C (glycated hemoglobin) expression; assay: Larval diabetic zebrafish assay, Western blot of HbA1C; type: in vivo; conditions: duplicate Western blot (FIG. 7), diabetic zebrafish larvae, 10 μM
# Method: (§3) Following isolation, derivatization, and analysis of compounds 41-48 through the in vitro panel of assays, the mace natural products and licarin A derivatives were investigated in the larval diabetic zebrafish assay for potential antidiabetic activity. Western blot analysis of zebrafish expression levels for glycated hemoglobin, metabolic enzymes, and molecular targets NFκB and PPAR-γ was performed to evaluate potential lead improvement and to discover possible mechanisms of action.
# (§4) Wild-type zebrafish were sorted into 24-well microplates with 10 fish per well for a four-phase treatment cycle. At 72 hpf, type 2 diabetes was induced by administering 0.5 mg/mL alloxan in fish water for percutaneous absorption. After three hours of alloxan treatment, phase two of the treatment cycle was initiated by administering 10 μM doses of natural product compounds 41-43 (FIG. 4) or derivatives 45-48 (FIG. 6) with 0.01% DMSO in system water. At 78 hpf, the incubation solution was changed to 10 mg/ml D-glucose for 30 minutes, followed by a phase-four rinse in fresh system w Following the four-phase treatment cycle, zebrafish treatment groups were snap frozen in microcentrifuge tubes on dry ice, stored overnight at −80° C., thawed, and homogenized with 2 μL PBS per animal. Following centrifugation (60 minutes at 4° C. and 17,000 rpm), protein content of the homogenate supernatant was determined using the Pierce BCA Protein Assay kit (Pierce Biotechnology). Homogenates were analyzed by Western blot with equal amounts of total protein (20 μg) in each sample and using 4×LDS loading buffer (NuPAGE Life Technologies). The immunoblot samples were heated at 95° C. for 5 minutes and loaded onto NuPAGE Bis-Tris 4-12% gradient SDS-PAGE gels.
# as §1, §2
# [5] = test system: PEPCK expression; assay: Larval diabetic zebrafish assay, Western blot of PEPCK; type: in vivo; conditions: duplicate Western blot (FIG. 10), diabetic zebrafish larvae, 10 μM
# Method: as §3, §4, §1, §2
# [6] = test system: NFκB p65 expression; assay: Larval diabetic zebrafish assay, Western blot of NFκB p65; type: in vivo; conditions: duplicate Western blot (FIG. 9), diabetic zebrafish larvae, 10 μM
# Method: as §3
# Wild-type zebrafish were sorted into 24-well microplates with 10 fish per well for a four-phase treatment cycle. […] Following centrifugation (60 minutes at 4° C. and 17,000 rpm), protein content of the homogenate supernatant was determined using the Pierce BCA Protein Assay kit (Pierce Biotechnology). Homogenates were analyzed by Western blot with equal amounts of total protein (20 μg) in each sample and using 4×LDS loading buffer (NuPAGE Life Technologies). […]
# Electrophoresis was performed with NuPAGE MES SDS Running Buffer and using the XCell SureLock Mini-Cell Electrophoresis System (Life Technologies). […] The HRP conjugated antibodies were detected using SuperSignal West Femto chemiluminescent substrate (Pierce Biotechnology) and immunoblot images were captured using the luminometer and Lumi Analyst 3.0 software. […]
# [7] = test system: GLUT-4 expression; assay: Larval diabetic zebrafish assay, Western blot of GLUT-4; type: in vivo; conditions: duplicate Western blot (FIG. 11), diabetic zebrafish larvae, 10 μM
# Method: as §3
# Wild-type zebrafish were sorted into 24-well microplates with 10 fish per well for a four-phase treatment cycle. At 72 hpf, type 2 diabetes was induced by administering 0.5 mg/mL alloxan in fish water for percutaneous absorption. After three hours of alloxan treatment, phase two of the treatment cycle was initiated by administering 10 μM doses of natural product compounds 41-43 (FIG. 4) or derivatives 45-48 (FIG. 6) with 0.01% DMSO in system water. […] Following centrifugation (60 minutes at 4° C. and 17,000 rpm), protein content of the homogenate supernatant was determined using the Pierce BCA Protein Assay kit (Pierce Biotechnology). Homogenates were analyzed by Western blot with equal amounts of total protein (20 μg) in each sample and using 4×LDS loading buffer (NuPAGE Life Technologies). […]
# Electrophoresis was performed with NuPAGE MES SDS Running Buffer and using the XCell SureLock Mini-Cell Electrophoresis System (Life Technologies). […] The HRP conjugated antibodies were detected using SuperSignal West Femto chemiluminescent substrate (Pierce Biotechnology) and immunoblot images were captured using the luminometer and Lumi Analyst 3.0 software.
# as §2
# [8] = Table 13, tested at 50, 5, 0.5 and 0.05 μg/mL
# [9] = Table 20 summary, read-out: NFκBIC50
# [10] = Table 19, licarin A derivatives at 50 μg/mL in Hela cells
"PPAR-γ % activation ([1]; Table 14, isolates at 50 μg/mL) [%]","IC50 [3, 8] [nM]","IC50 [3, 9] [nM]",IC50 ([3]; in vitro NFκB assay) [nM],Structure (SMILES),"PPAR-γ % activation ([1]; Table 20 summary, 50 μg/mL) [%]",PPAR-γ expression (band density) ([2]; preliminary Western blot (FIG. 4/5)),HbA1C expression (band density) [4],"PPAR-γ % activation [1, 10] [%]",PEPCK expression (band density) [5],"PPAR-γ activity in vitro ([1]; preliminary screening, 50 μg/mL)",NFκB p65 expression (band density) [6],PPAR-γ expression (band density) ([2]; duplicate Western blot (FIG. 8)),NFκB inhibitory activity in vitro ([3]; HeLa cells),GLUT-4 expression (band density) [7]
<50,64.4,64.4,64.4,"C=CCc1cc(OC)c(O[C@H](C)[C@@H](O)c2ccc3c(c2)OCO3)c(OC)c1 [Compound 43, erythro-8,4′-oxyneolign-8′-ene]",<50,greater PPAR-γ expression that 41,–,–,–,–,–,–,–,–
–,0.1,0.1,0.1,"C/C=C/c1ccc(O[C@H](C)[C@@H](OC(C)=O)c2ccc3c(c2)OCO3)c(OC)c1 [Compound 44, maceneolignan J]",–,–,–,–,–,–,–,–,–,–
–,–,–,–,"C/C=C/c1cc(OC)c2c(c1)[C@H](C)[C@@H](c1ccc(OC(C)C)c(OC)c1)O2 [Compound 45, isopropoxy-licarin A]",57,–,did not reduce HbA1C expression,57,indicated a return to normoglycemia,–,–,–,–,–
–,–,–,–,"COc1cc([C@H]2Oc3c(OC)cc(C=O)cc3[C@@H]2C)ccc1OC(C)C [Compound 46, isopropoxy-licarin A carbaldehyde]",29,–,most effective test samples for decreasing HbA1C; also recorded: significant reduction of HbA1C expression,29,indicated a return to normoglycemia,no significant PPAR-γ activity in vitro,lower levels of NFκB,–,–,–
–,–,–,–,"C/C=C/c1cc(OC)c2c(c1)[C@H](C)[C@@H](c1ccc(OC(=O)OCC)c(OC)c1)O2 [Compound 47, licarin A ethyl carbonate]",0,–,did not reduce HbA1C expression,0,retained low PEPCK expression,–,–,performed surprisingly well,only weak NFκB inhibitory activity,significantly increased capacities for glucose uptake
–,–,–,–,"CCOC(=O)Oc1ccc([C@H]2Oc3c(OC)cc(C=O)cc3[C@@H]2C)cc1OC [Compound 48, licarin A formyl ethyl carbonate]",0,–,did not reduce HbA1C expression,0,retained low PEPCK expression,–,lower levels of NFκB,–,–,significantly increased capacities for glucose uptake
